Measurements taken from US9132198B2, “Mitochondrial penetrating peptides as carriers for anticancer compounds” (priority 2011, dated 2015).
Entries after “also recorded” stand apart in the source; their conditions may differ. Non-standard residues stand in square brackets, D forms with d. Residues, ends and D or L forms follow the SMILES beside them. *: point of attachment. Chlorambucil = O=C(CCCc1ccc(N(CCCl)CCCl)cc1)*; Cha = N[C@@H](CC1CCCCC1)C(=O)O

Legend:
LY17 cells = test: Analysis of toxicity, CCK-8 viability, leukemia panel: LY17; settings: read-out: LC50
M2 (OCI-M2) cells = test: Analysis of toxicity, CCK-8 viability, leukemia panel: M2
[1] = system: red blood cells (healthy donors); test: Hemolysis assay; assay type: cell-based, human; settings: RBCs of healthy donors, at concentrations used (LC25, LC50)
Method: Red blood cells obtained during Ficoll separation of healthy donor peripheral blood was used for this assay. Cells were washed with PBS until the supernatant was clear. Peptide solutions were made in Iscove's media and a 1:2 dilution was made across a 96-well plate. To each well, 2 μl, of red blood cells were added, mixed and then incubated for 1 hour at 37° C. with 5% CO2. For 100% lysis, 0.1% Triton X-100 was added to three wells and for 0% lysis, cells from three wells without peptide were used. Plates were spun at 1000×g for 10 min and 50 μL of supernatant was then transferred to a new plate, mixed with 50 μL of PBS and read at 415 nm.

A2780 wildtype cells = test: Annexin V apoptosis assay, A2780 wild-type; assay type: cell-based; settings: A2780 wild-type line
HL60 cells [2] = test: Analysis of toxicity, CCK-8 viability, leukemia panel: HL60; settings: for LC25 dose: HL60 cells
[3] = system: 8.9 kb mitochondrial DNA segment in HL60 cells; test: DNA lesion frequency by quantitative PCR, mitochondrial DNA; assay type: cell-based; settings: HL60, Cbl 150 μM or mt-Cbl 3 μM, 2 hr
Method: (§1) A total of 5×10^6 HL60 cells were treated with Cbl (150 μM) or mt-Cbl (3 μM) for 2 hr. DNA was isolated from frozen cell pellets with the QIAGEN Genomic Tip and Genomic DNA Buffer Set Kit (QIAGEN) and quantified using the PicoGreen dye (Invitrogen). Quantitative amplification of the 8.9 kb mitochondrial segment and the 17.7 kb β-globin target sequence was performed using the GeneAmp XL PCR kit (Perkin-Elmer) as described previously^31. Lesion frequency at a given dose, D, was calculated as D=−In AD/AC, where AD is the amplification at the dose, and AC is the level of amplification in nondamaged controls.

HeLa cells [4] = test: Mitochondrial membrane potential (JC-1, flow cytometry); assay type: cell-based; settings: 1 hour treatment
Method: HeLa cells were seeded at 50,000 cells per well 24 hours prior to experiment. CLL patient samples, PBSCs and healthy donor B cells were seeded at 200,000 cells per well in triplicate in a 24-well plate in Iscove's media. Cells were then incubated with 2 μM of 5,5′,6,6′-tetrachloro-1,1′,3,3′-tetraethylbenzimidazolylcarbocyanine iodide (JC-1, Invitrogen, Carlsbad) for 20 minutes at 37° C. Each sample was then washed twice with 1 mL PBS and resuspended in 300 μL PBS prior to being read on a BD FACS Canto. Samples were excited at 488 nm and emission was collected at 526 nm (green) and 595 nm (red). To obtain the mitochondrial membrane potential (red/green), emission from the red channel was divided by emission from the green channel. For membrane depolarization studies, HeLa cells were treated with Cbl or MPP-Cbl for 1 hour in OPTI-MEM (Invitrogen, Carlsbad) prior to incubation with JC-1. Cells were washed with PBS, trypsinized and analyzed as above.

pBR322DNA = test: Crosslinking of isolated DNA; assay type: biochemical; settings: 2-200 μM
Method: Crosslinking of isolated pBR322DNA was determined from a modification of a published method.^30 Briefly, pBR322DNA was incubated with compounds at concentrations and times indicated in 25 mM triethanolamine (pH 7.2) and 1 mM EDTA. Reactions were terminated by the addition of 50 mM EDTA and 150 μg/ml excess short oligonucleotide DNA. Samples were denatured at 95° C. in denaturation buffer (30% DMSO, 1 mM EDTA, bromophenol blue, xylene cyanol, and 0.4% SDS) for 3 min and flash frozen in a dry ice/ethanol bath. Electrophoresis was carried out in 0.8% agarose in TAE buffer and stained post-run with ethidium bromide.

[5] = system: A2780 Cbl-resistant cells; test: Annexin V apoptosis assay, A2780 Cbl-resistant; assay type: cell-based; settings: A2780 Cbl-resistant line
[6] = system: 17.7 kb nuclear DNA segment (β-globin gene) in HL60 cells; test: DNA lesion frequency by quantitative PCR, nuclear DNA; assay type: cell-based; settings: HL60, Cbl 150 μM or mt-Cbl 3 μM, 2 hr
Method: as §1

HL60 cells [7] = test: Western blots of GADD45G pathway effector proteins (p38, JNK); assay type: cell-based; settings: HL60, immunoblotting
Method: Leukemia cells were cultured as above and were washed twice with PBS prior to lysis (10 mM Tris, 200 mM NaCl, 1 mM EDTA (pH 7.4), 1 mM PMSF, 0.5% NP-40, 1% Triton X-100, 1× Protease Inhibitor Cocktail (Bioshop, Burlington, ON)) at 4° C., 30 min. Cells were then centrifuged at 1,200 rcf, 4° C., 5 min and protein levels were quantified using bicinchoninic acid (BCA) assay (Pierce, Rockford). 15 μg of total protein was diluted in 8× sample buffer and heated to 42° C. for 5 min prior to loading on 15% gel. Gels were run at 100 V for 1 h, and then proteins were transferred onto nitrocellulose membrane at 100 V for 40 min. Membranes were blocked with 5% skim milk for 1 hour and then probed with primary antibody according to manufacturer's instructions (1:500 BclXL antibody [Abcam, Cambridge, Mass.], 1:2000 β-actin antibody [Abcam], 1:1000 phospho INK [Abcam], 1:1000 phospho p38 [Abcam], 1:1000 GADD45G [Santa Cruz Biotechnology, Santa Cruz, Calif.], 1:1000 PPP1R15A [Santa Cruz Biotechnology], 1:1000 DNA Ligase III [Santa Cruz Biotechnology], 1:1000 p21 [Santa Cruz Biotechnology], and 1:1000 DDIT3 [Cell Signaling Technology, Beverly, Mass.]). Membranes were then washed and incubated with 1:5000 donkey anti-mouse or goat anti-rabbit IgG-HRP secondary antibody for 1 hr prior to ECL chemiluminescence detection (GE Amersham).

DAUDI cells = test: Analysis of toxicity, CCK-8 viability, leukemia panel: DAUDI; settings: Homo sapiens, read-out: LC50
CLL patient cells [8] = test: Annexin V/Sytox Red viability of CLL patient cells versus healthy donor cells; assay type: cell-based, human; settings: LC25 and LC50; PBSCs and mononuclear cells of healthy donors as comparison
HL60 cells [9] = test: Quantitative real-time PCR array of DNA damage signaling genes; assay type: cell-based, human; settings: for DDIT3/GADD153 change in expression: vs untreated cells
U937 cells = test: Analysis of toxicity, CCK-8 viability, leukemia panel: U937; settings: Homo sapiens, U-937, read-out: LC50
AML2 (OCI-AML2) cells = test: Analysis of toxicity, CCK-8 viability, leukemia panel: AML2; settings: Homo sapiens, OCI-AML2, read-out: LC50
K562 cells = test: Analysis of toxicity, CCK-8 viability, leukemia panel: K562
[10] = Colorimetric alkylation assay; assay type: biochemical; settings: absorbance of 4-NBP upon alkylation
Method: Alkylation was tested using 4-(4-Nitrobenzyl)pyridine (4-NBP) (Thomas, et al., 1992). Briefly, compound (200-450 μM) was incubated with 4-NBP (0.7% w/vol) in a buffer containing 85 mM triethanolamine (pH 7.2) and 43% acetone. Reactions were incubated at 37° C. for 30-120 min. Reactions were terminated by freezing in a dry ice/ethanol bath. To develop samples, […] ethyl acetate and 25 μl 5N NaOH were added followed by vortexing. Absorbance of organic ethyl acetate was read at 540 nm.

HeLa cells [11] = test: Analysis of mitochondrial superoxide levels (MitoSOX, flow cytometry); assay type: cell-based; settings: 1 hour treatment
Method: HeLa cells were plated at 100,000 per well of a 24-well plate 24 hours prior to experiment and treated with Cbl or MPP-Cbl in OPTI-MEM (Invitrogen, Carlsbad) for 1 hour. Media was removed and cells were incubated with MitoSox (Invitrogen, Carlsbad) according to manufacturer's instructions. Cells were washed with PBS, trypsinized and analyzed via flow cytometry with FACSCanto (BD, Franklin Lakes).

HeLa cells [12] = test: Analysis of toxicity, CCK-8 viability, HeLa; assay type: cell-based
[13] = immunogold TEM, mouse liver mitochondria
Method: Mitochondria were isolated from fresh mouse liver as previously described^1. Functionality was confirmed using respirometry. The isolated organelles were used only when the levels of oxygen consumption in state III respiration (presence of ADP) were >4 fold greater than in state II respiration, indicating well-coupled mitochondria. Mitochondrial protein concentration was determined by BCA assay (Sigma). […] Cold PBS was added and mitochondria were pelleted by centrifugation. The pellet was fixed in 1% glutaraldehyde in PBS for 90 min at room temperature, washed with PBS, then fixed with 1% osmium tetroxide for 2 hr at 4° C. The pellets were dehydrated using graded ethanol, followed by stepwise infiltration with propylene oxide and Epon-Araldite resin. The pellets were cured in resin for 48 hr at 60° C. The blocks were sectioned to 60 nm and the sections adhered to nickel grids for 30 min at 60° C. The grids were floated on saturated aqueous sodium metaperiodate for an hour at room temperature, washed, then blocked with 1% BSA, and labeled with Anti-biotin (Jackson Immunolabs) followed by Protein A-gold (Aurion, 10 nm). The grids were rinsed with water and stained with 2% uranyl acetate for 5 minutes. To quantitate gold labeling, 200 gold particles (for more densely labeled samples) or 400 mitochondria (for less densely labeled samples) were counted for each counting event. […]

CLL patient cells [14] = test: Peptide uptake (flow cytometry); assay type: cell-based, human; settings: 5 μM thiazole orange-labeled peptide, 15 min; CLL cells vs PBSCs and mononuclear cells
Method: CLL patient samples, PBSCs and healthy donor B cells were seeded at 200,000 cells per well in triplicate in a 24-well plate in Iscove's media. Cells were then incubated with 5 μM thiazole orange-labeled peptide for 15 min, washed with PBS and analyzed on FACSCanto (BD, Franklin Lakes) to determine relative intracellular peptide concentrations.

[15] = HL60, LC25 dose, greater with mt-Cbl relative to Cbl alone

## O=C(O)CCCc1ccc(N(CCCl)CCCl)cc1 [Cbl, chlorambucil]
LY17 cells
  CC50: 55 ± 7 µM
M2 (OCI-M2) cells; OCI-M2, read-out: LC50
  CC50: 311 ± 24 µM
M2 (OCI-M2) cells; OCI-M2 cells
  resistance to Cbl relative to rest of the cohort: approximately 10 fold
[1]
  hemolysis: minimal
A2780 wildtype cells
  induction of cell death: able to induce cell death
HL60 cells [2]
  LC25 dose: 17 µM
HL60 cells [2]; Homo sapiens, HL-60
  EC50: 34 µM
HL60 cells [2]; Homo sapiens, HL-60, read-out: LC50
  CC50: 34 ± 6 µM
[3]
  damage of mitochondrial DNA: very few mitochondrial lesions
HeLa cells [4]
  depolarization of mitochondrial membrane: not with Cbl
pBR322DNA
  DNA crosslink formation: concentration-dependent crosslink formation
[5]; even at 100 μM
  toxicity: insignificant
[6]
  damage of nuclear DNA: primarily damaged nuclear DNA
HL60 cells [7]
  activation of p38 or JNK pathways: activating p38
DAUDI cells
  CC50: 27 ± 7 µM
CLL patient cells [8]
  selective toxicity to CLL patient cells versus healthy donor cells: more selectively toxic to CLL patient samples cells
HL60 cells [9]; HL60, LC25 dose
  p21 expression: overexpressed
  DDIT3/GADD153 change in expression: 5 fold
U937 cells
  CC50: 34 ± 5 µM
AML2 (OCI-AML2) cells
  CC50: 28 ± 3 µM
K562 cells; Homo sapiens, K562, read-out: LC50
  CC50: 306 ± 26 µM
K562 cells; K562 cells
  resistance to Cbl relative to rest of the cohort: approximately 10 fold

## CC(=O)N[C@@H](CC1CCCCC1)C(=O)N[C@H](CCCNC(=N)N)C(=O)N[C@@H](CC1CCCCC1)C(=O)N[C@H](CCCNC(=N)N)C(=O)N[C@@H](CC1CCCCC1)C(=O)N[C@H](CCCNC(=N)N)C(=O)N[C@H](CCCCNC(=O)CCCc1ccc(N(CCCl)CCCl)cc1)C(N)=O [MPP-Cbl, Ac-FxrFxrFxrk-Cbl] (Ac-[Cha][dR][Cha][dR][Cha][dR][dK](Chlorambucil)-NH2)
[10]
  reduction of alkylating ability compared to Cbl alone: approximately two fold
[1]
  hemolysis: nominal hemolysis levels; also recorded: minimal
HeLa cells [11]
  increase of mitochondrial superoxide levels: noted upon MPP-Cbl treatment
A2780 wildtype cells
  concentration inducing cell death: 9 µM
HL60 cells [2]
  LC25 dose: 3 µM
[3]
  damage of mitochondrial DNA: significant reduction of mitochondrial DNA amplification
HeLa cells [4]
  depolarization of mitochondrial membrane: noted upon MPP-Cbl treatment
pBR322DNA
  DNA crosslink formation: concentration-dependent crosslink formation
[5]; value comparable to wild-type
  concentration inducing cell death: 9 µM
[6]
  damage of nuclear DNA: minimal effect on the nuclear genome
HL60 cells [7]
  activation of p38 or JNK pathways: activating JNK
CLL patient cells [8]
  selective toxicity to CLL patient cells versus healthy donor cells: more selectively toxic to CLL patient samples cells
HL60 cells [9]; HL60, LC25 dose
  p21 expression: overexpressed
  DDIT3/GADD153 change in expression: no change
HL60 cells [9]; [15]
  GADD45G upregulation: 15 fold
  PPP1R15A/GADD34 upregulation: 4 fold
HL60 cells [9]; HL60, LC50 dose, 1 hr
  Ligase III increase in expression: this was detected
HeLa cells [12]; cell viability assay, 24 hours
  increase in potency compared to Cbl: 100 fold

## Ac-FxrFxrFxr [MPP]
HeLa cells [12]; concentration range tested
  toxicity: did not show appreciable toxicity

## Biotin-FxrFxrFxr [Biotin-MPP]
[13]
  localization within isolated mitochondria: predominantly matrix localization

## TO-FxrFxrFxr [to-MPP]
CLL patient cells [14]
  peptide uptake: higher levels of peptide uptake in CLL cells
